Laboratory results from patent publication US10654834B2 (Venenum Biodesign, LLC, priority 2016, dated 2020).

Tests used:
[1] = biological target: T1, human TGR5 receptor (Homo sapiens, UniProt Q8TDU6); test: Human TGR5 cAMP production assay (hTGR5-CHO cells, DiscoveRx cAMP XS+ kit); format: cell-based; conditions: luminescent cAMP assay, read-out: Human TGR5 Lum. cAMP Activity (EC50)
T1 construct: host or cells: CHO-K1 (hTGR5-CHO)
T1 sequence (Q8TDU6 1-330): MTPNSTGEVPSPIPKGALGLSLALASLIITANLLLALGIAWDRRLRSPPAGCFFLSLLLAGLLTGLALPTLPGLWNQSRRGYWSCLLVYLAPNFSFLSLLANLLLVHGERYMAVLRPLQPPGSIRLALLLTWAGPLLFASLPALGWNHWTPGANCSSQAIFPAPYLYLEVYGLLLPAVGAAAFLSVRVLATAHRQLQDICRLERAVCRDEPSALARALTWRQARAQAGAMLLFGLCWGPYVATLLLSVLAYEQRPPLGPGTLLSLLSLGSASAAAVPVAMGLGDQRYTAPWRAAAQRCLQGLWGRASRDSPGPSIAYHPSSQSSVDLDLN
Outline: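 EC50 values come from luminescent enzyme-complementation cAMP detection, read after overnight incubation. Beforehand, hTGR5-expressing CHO-K1 cells with IBMX and anti-cAMP antibody were exposed 1 h at room temperature to serially diluted (half-log) compounds.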

[2] = tested on: Mouse STC-1 cells; test: STC-1 GLP-1 assay (GLP-1 secretion); format: cell-based; conditions: Mouse STC-1 cells, GLP-1 secretion, 2 h; read-out: Mouse STC-1 HTRF GLP-1 Activity (EC50)
Outline: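 Secreted active GLP-1 was measured by HTRF after overnight room-temperature incubation of supernatant with the conjugates. Supernatants came from a 2 h, 37° C. compound exposure (12-point half-log series) in HBSS with DPP-IV and protease inhibitors and 0.1% fatty acid free BSA. STC-1 cells had been seeded two days earlier in stripped-serum DMEM; EC50 reported.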

Row | EC50 [1] [nM] | EC50 [2] [nM] | SMILES
1 | < 100 | < 100 | N#Cc1ccc(CCNC(=O)[C@@H]2CCN2c2cc(N3CCC(CCO)CC3)nc(C(F)(F)F)n2)cc1 [Compound 223, (S)-N-(4-cyanophenethyl)-1-(6-(4-(2-hydroxyethyl)piperidin-1-yl)-2-(trifluoromethyl)pyrimidin-4-yl)azetidine-2-carboxamide]
2 | < 100 | < 100 | N#Cc1ccc(CCNC(=O)[C@@H]2CCCN2c2cc(N3CCC(CCO)CC3)nc(C(F)(F)F)n2)cc1 [Compound 22]
3 | < 100 | 100 to 999 | CN(C)CCC1CCN(c2cc(N3CCC[C@H]3C(=O)NCCc3ccc(C(F)(F)F)cc3)nc(C(F)(F)F)n2)CC1 [Compound 5]
4 | < 100 | < 100 | N#Cc1ccc(CCNC(=O)[C@@H]2CCN2c2cc(N3CCC(CCNC(=O)NCCOCCNC(=O)NCCS(=O)(=O)O)CC3)nc(C(F)(F)F)n2)cc1 [Compound 358, (S)-15-(1-(6-(2-((4-cyanophenethyl)carbamoyl)azetidin-1-yl)-2-(trifluoromethyl)pyrimidin-4-yl)piperidin-4-yl)-4,12-dioxo-8-oxa-3,5,11,13-tetraazapentadecane-1-sulfonic acid]
5 | 100 to 999 | 100 to 999 | N#Cc1ccc(CCNC(=O)[C@@H]2CCCN2c2cc(N3CCC(CCC(=O)O)CC3)nc(C(F)(F)F)n2)cc1 [Compound 28]
6 | < 100 | 100 to 999 | N#Cc1ccc(CCNC(=O)[C@@H]2CCCN2c2cc(-c3ccc(CO)cc3)cc(C(F)(F)F)n2)cc1 [Compound 204, (S)—N-(4-cyanophenethyl)-1-(4-(4-(hydroxymethyl)phenyl)-6-(trifluoromethyl)pyridin-2-yl)pyrrolidine-2-carboxamide]
7 | < 100 | < 100 | N#Cc1ccc(CCNC(=O)[C@@H]2CCCN2c2cc(N3CCC(CCNS(=O)(=O)CCNC(=N)N)CC3)nc(C(F)(F)F)n2)cc1 [Compound 130, (S)-N-(4-cyanophenethyl)-1-(6-(4-(2-(2-guanidinoethylsulfonamido)ethyl)piperidin-1-yl)-2-(trifluoromethyl)pyrimidin-4-yl)pyrrolidine-2-carboxamide]

More lines, now with the values behind:

Row | SMILES | EC50 [1] [nM] | EC50 [2] [nM]
8 | O=C(CCCC1CCN(c2cc(N3CCC[C@H]3C(=O)NCCc3ccc(C(F)(F)F)cc3)nc(C(F)(F)F)n2)CC1)NCCCS(=O)(=O)O [Compound 60, (S)-3-(4-(1-(2-(trifluoromethyl)-6-(2-((4-(trifluoromethyl)phenethyl)carbamoyl)pyrrolidin-1-yl)pyrimidin-4-yl)piperidin-4-yl)butanamido)propane-1-sulfonic acid] | < 100 | < 100
9 | N#Cc1ccc(CCNC(=O)[C@@H]2CCCN2c2cc(N3CCC(CCNc4c(NCCC(=O)O)c(=O)c4=O)CC3)nc(C(F)(F)F)n2)cc1 [Compound 368, (S)-3-((2-((2-(1-(6-(2-((4-cyanophenethyl)carbamoyl)pyrrolidin-1-yl)-2-(trifluoromethyl)pyrimidin-4-yl)piperidin-4-yl)ethyl)amino)-3,4-dioxocyclobut-1-en-1-yl)amino)propanoic acid] | < 100 | 100 to 999
10 | N#Cc1ccc(CCNC(=O)[C@@H]2CCN2c2cc(N3CCC(CCNc4c(NCCS(=O)(=O)O)c(=O)c4=O)CC3)nc(C(F)(F)F)n2)cc1 [Compound 297, (S)-2-((2-((2-(1-(6-(2-((4-cyanophenethyl)carbamoyl)azetidin-1-yl)-2-(trifluoromethyl)pyrimidin-4-yl)piperidin-4-yl)ethyl)amino)-3,4-dioxocyclobut-1-en-1-yl)amino)ethanesulfonic acid] | < 100 | 100 to 999
11 | N#Cc1ccc(CCNC(=O)[C@@H]2CCN2c2cc(N3CCC(CCCC(=O)NCCNC(=N)N)CC3)nc(C(F)(F)F)n2)cc1 [Compound 282, (S)—N-(4-cyanophenethyl)-1-(6-(4-(4-((2-guanidinoethyl)amino)-4-oxobutyl)piperidin-1-yl)-2-(trifluoromethyl)pyrimidin-4-yl)azetidine-2-carboxamide] | < 100 | 100 to 999
12 | N#Cc1ccc(CCNC(=O)[C@@H]2CCCN2c2cc(N3CCC(CCCC(=O)NCCNc4ncc(C(=O)NCCS(=O)(=O)O)cn4)CC3)nc(C(F)(F)F)n2)cc1 [Compound 112, (S)-2-(2-((2-(4-(1-(6-(2-((4-cyanophenethyl)carbamoyl)pyrrolidin-1-yl)-2-(trifluoromethyl)pyrimidin-4-yl)piperidin-4-yl)butanamido)ethyl)amino)-pyrimidine-5-carboxamido)ethanesulfonic acid] | < 100 | < 100
13 | O=C(O)CCC1CCN(c2cc(N3CC[C@H]3C(=O)NCCc3ccc(C(F)(F)F)cc3)nc(C(F)(F)F)n2)CC1 [Compound 232, (S)-3-(1-(2-(trifluoromethyl)-6-(2-((4-(trifluoromethyl)phenethyl)carbamoyl)azetidin-1-yl)pyrimidin-4-yl)piperidin-4-yl)propanoic acid] | < 100 | < 100
14 | N#Cc1ccc(CCNC(=O)[C@@H]2CCCN2c2cc(N3CCC(CCCC(=O)NCCCS(=O)(=O)O)CC3)nc(C(F)(F)F)n2)cc1 [Compound 63, (S)-3-(4-(1-(6-(2-((4-cyanophenethyl)carbamoyl)pyrrolidin-1-yl)-2-(trifluoromethyl)pyrimidin-4-yl)-piperidin-4-yl)butanamido)propane-1-sulfonic acid] | < 100 | < 100
15 | N#Cc1ccc(CCNC(=O)[C@@H]2CCCN2c2cc(N3CCC(CCNc4c(NCP(=O)(O)O)c(=O)c4=O)CC3)nc(C(F)(F)F)n2)cc1 [Compound 369, (S)-(((2-((2-(1-(6-(2-((4-cyanophenethyl)carbamoyl)pyrrolidin-1-yl)-2-(trifluoromethyl)pyrimidin-4-yl)piperidin-4-yl)ethyl)amino)-3,4-dioxocyclobut-1-en-1-yl)amino)methyl)phosphonic acid] | < 100 | 100 to 999
16 | N#Cc1ccc(CCNC(=O)[C@@H]2CCCN2c2cc(N3CCC(CCCNC(=O)NCC(=O)O)CC3)nc(C(F)(F)F)n2)cc1 [Compound 121, (S)-2-(3-(3-(1-(6-(2-((4-cyanophenethyl)carbamoyl)pyrrolidin-1-yl)-2-(trifluoromethyl)pyrimidin-4-yl)piperidin-4-yl)propyl)ureido)acetic acid] | 100 to 999 | 100 to 999
17 | N#Cc1ccc(CCNC(=O)[C@@H]2CCCN2c2cc(N3CCC(CCNC(=O)NCCC(=O)NCCS(=O)(=O)O)CC3)nc(C(F)(F)F)n2)cc1 [Compound 113, (S)-2-(3-(3-(2-(1-(6-(2-((4-cyanophenethyl)carbamoyl)pyrrolidin-1-yl)-2-(trifluromethyl)pyrimidin-4-yl)piperidin-4-yl)ethyl)ureido)-propanamido)-ethanesulfonic acid] | < 100 | 100 to 999
